For series [1], the system named is vaccinia virus expressing the green fluorescent protein (vvGFP). In words: microbe, parasite or virus in culture. Particulars: for IC50: Orthopoxvirus vaccinia, BSC-40, 24 h. Format: cell-based.
Series [2] can be described thus: in vitro. The following applies: African green monkey.
For series [3] the following is noted: in vivo, po; cited from earlier work.

Turning to `COc1c(CCNC(=O)c2cc3ccccc3cc2O)cccc1-c1ccc([N+](=O)[O-])cc1` [TTP-A, 3-hydroxy-naphthalene-2-carboxylic acid [2-(2-methoxy-4′-nitro-biphenyl-3-yl)-ethyl]-amide], in series [1], the “anti-viral effect in a cell culture assay (inhibition of viral replication)” value is reported as “have an anti-viral effect” and the IC50 is roughly 12 µM. Further, the CC50 in series [2] is roughly 900 µM.

As to `COC(=O)C(Cc1ccc(-c2ccc(F)c(Cl)c2)cc1)NC(=O)c1cc(-c2ccc(C(F)(F)F)cc2)ccc1O` (stereo not shown) [TTP-B, 3-(3′-chloro-4′-fluoro-biphenyl-4-yl)-2-[(4-hydroxy-4′-trifluoromethyl-biphenyl-3-carbonyl)-amino]-propionic acid methyl ester], in series [1], the “anti-viral effect in a cell culture assay (inhibition of viral replication)” value was “have an anti-viral effect” and the concentration for half-maximal inhibition (IC50) was roughly 4.6 µM. This compound displayed a CC50 in series [2] of roughly 600 µM.

Take `Nc1ccn(C[C@@H](CO)OCP(=O)(O)O)c(=O)n1` [cidofovir]: the “bio-availability when administered orally” value in series [3] is “low bio-availability”.

These data come from patent publication US20070112523A1 (priority 2003, published 2007).
